In ChEMBL document CHEMBL1177792, “Pre-clinical characterization of aryloxypyridine amides as histamine H3 receptor antagonists: identification of candidates for clinical development” (Bioorg Med Chem Lett, 2010):
Each block holds one compound with its values, some of them ahead of it. Active and inactive are the calls of the source. The calls are words filed in the database; no cut-off is given here.

Columns and labels:
Histamine H3 receptor [1] = target: T1, Histamine H3 receptor (Homo sapiens, UniProt Q9Y5N1); assay: Displacement of [125I]-iodoproxyfan from human recombinant histamine H3 receptor expressed in human SK-N-MC cells after 1 hr by scintillation counting; type: cell-based
T1 sequence (Q9Y5N1 whole entry): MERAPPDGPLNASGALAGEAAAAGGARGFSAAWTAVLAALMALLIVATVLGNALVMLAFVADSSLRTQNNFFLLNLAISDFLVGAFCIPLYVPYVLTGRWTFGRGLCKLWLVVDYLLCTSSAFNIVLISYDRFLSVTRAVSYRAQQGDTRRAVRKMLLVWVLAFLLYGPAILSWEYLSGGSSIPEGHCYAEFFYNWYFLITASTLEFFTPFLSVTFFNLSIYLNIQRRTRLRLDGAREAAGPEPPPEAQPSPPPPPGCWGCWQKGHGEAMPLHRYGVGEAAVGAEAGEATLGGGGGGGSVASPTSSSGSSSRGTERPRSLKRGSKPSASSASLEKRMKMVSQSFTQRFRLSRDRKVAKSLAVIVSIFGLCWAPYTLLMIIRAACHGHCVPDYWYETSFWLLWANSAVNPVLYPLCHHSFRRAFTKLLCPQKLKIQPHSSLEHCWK

Rattus norvegicus [2] = assay: Ex vivo receptor occupancy of histamine H3 receptor in Wistar rat brain at 10 mg/kg, po after 1 hr by autoradiography; type: functional
[3] = Drug level in Wistar rat brain at 10 mg/kg, po after 1 hr; type: ADME, organism-based; design: dose 10 mg/kg, route oral; conditions: read-out: Drug uptake
[4] = Plasma concentration in Wistar rat at 10 mg/kg, po after 1 hr; type: ADME, organism-based; design: dose 10 mg/kg, route oral; conditions: read-out: Drug uptake
[5] = Metabolic stability in human liver microsomes assessed as compound remaining after 30 mins; type: ADME, Microsome; conditions: read-out: Stability
[6] = Metabolic stability in rat liver microsomes assessed as compound remaining after 30 mins; type: ADME, Microsome; conditions: read-out: Stability
Histamine H3 receptor [7] = target: T1, Histamine H3 receptor; assay: Antagonist activity at human histamine H3 receptor expressed in human SK-N-MC cells assessed as inhibition of forskolin-induced cAMP accumulation after 6 hrs; type: functional, cell-based; conditions: read-out: pA2 (converted)
Histamine H3 receptor [8] = target: T2, Histamine H3 receptor (Rattus norvegicus, UniProt Q9QYN8); assay: Binding affinity to histamine H3 receptor in rat brain; type: tissue-based
T2 sequence (Q9QYN8 whole entry): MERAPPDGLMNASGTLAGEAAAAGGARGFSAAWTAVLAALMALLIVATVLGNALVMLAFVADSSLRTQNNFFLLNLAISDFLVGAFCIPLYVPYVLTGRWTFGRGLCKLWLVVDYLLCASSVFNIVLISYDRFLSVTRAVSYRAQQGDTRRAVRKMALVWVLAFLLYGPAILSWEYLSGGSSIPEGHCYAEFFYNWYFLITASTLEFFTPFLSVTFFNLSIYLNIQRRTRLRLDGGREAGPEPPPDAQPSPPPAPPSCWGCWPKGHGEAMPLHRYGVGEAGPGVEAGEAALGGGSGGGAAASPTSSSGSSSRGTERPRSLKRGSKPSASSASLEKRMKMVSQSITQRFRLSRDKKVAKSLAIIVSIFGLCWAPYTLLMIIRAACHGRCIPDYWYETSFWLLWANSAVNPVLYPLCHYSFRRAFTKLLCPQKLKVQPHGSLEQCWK

Histamine H3 receptor [9] = target: T2, Histamine H3 receptor; assay: Antagonist activity at rat histamine H3 receptor expressed in human SK-N-MC cells assessed as inhibition of forskolin-induced cAMP accumulation after 6 hrs; type: functional, cell-based; conditions: read-out: pA2 (converted)
Rattus norvegicus [10] = assay: Ex vivo receptor occupancy of histamine H3 receptor in Wistar rat brain at 1 mg/kg, po after 60 mins by [3H]R-alpha-methylhistamine bingind autoradiography; type: functional
[11] = Half life in Beagle dog at 1 mg/kg, iv and 5 mg/kg, po; type: ADME, organism-based, Canis lupus familiaris; conditions: in vivo
[12] = Bioavailability in Sprague-Dawley rat at 1 mg/kg, iv and 10 mg/kg, po; type: ADME, organism-based; conditions: in vivo
Cytochrome P450 2C9 = Cytochrome P450 2C9 (Homo sapiens, UniProt P11712); assay: Inhibition of CYP2C9 at 10 uM; type: ADME
Cytochrome P450 2C9, sequence (P11712 whole entry): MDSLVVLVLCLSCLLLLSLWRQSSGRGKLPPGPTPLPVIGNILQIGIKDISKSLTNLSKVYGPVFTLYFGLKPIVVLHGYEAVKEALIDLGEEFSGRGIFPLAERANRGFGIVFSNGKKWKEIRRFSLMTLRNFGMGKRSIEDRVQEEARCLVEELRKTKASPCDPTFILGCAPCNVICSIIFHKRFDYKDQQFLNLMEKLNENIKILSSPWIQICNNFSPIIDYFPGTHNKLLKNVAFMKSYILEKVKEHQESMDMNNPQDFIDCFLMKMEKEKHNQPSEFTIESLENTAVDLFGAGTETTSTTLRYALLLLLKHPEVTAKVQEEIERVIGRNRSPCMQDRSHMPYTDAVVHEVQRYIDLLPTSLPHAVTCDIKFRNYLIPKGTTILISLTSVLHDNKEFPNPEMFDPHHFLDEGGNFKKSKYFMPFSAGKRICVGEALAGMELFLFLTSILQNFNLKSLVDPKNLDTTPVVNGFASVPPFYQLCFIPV

Rattus norvegicus [13] = assay: Increase of wake duration in rat at 30 mg/kg, s.c.
[14] = Permeability from apical to basolateral side of human Caco-2 cells; type: ADME, cell-based; conditions: read-out: permeability
[15] = Solubility in water; type: physicochemical
[16] = target: T3, Voltage-gated inwardly rectifying potassium channel KCNH2 (Homo sapiens, UniProt Q12809); assay: Inhibition of human ERG by patch clamp technique
T3 sequence (Q12809 whole entry): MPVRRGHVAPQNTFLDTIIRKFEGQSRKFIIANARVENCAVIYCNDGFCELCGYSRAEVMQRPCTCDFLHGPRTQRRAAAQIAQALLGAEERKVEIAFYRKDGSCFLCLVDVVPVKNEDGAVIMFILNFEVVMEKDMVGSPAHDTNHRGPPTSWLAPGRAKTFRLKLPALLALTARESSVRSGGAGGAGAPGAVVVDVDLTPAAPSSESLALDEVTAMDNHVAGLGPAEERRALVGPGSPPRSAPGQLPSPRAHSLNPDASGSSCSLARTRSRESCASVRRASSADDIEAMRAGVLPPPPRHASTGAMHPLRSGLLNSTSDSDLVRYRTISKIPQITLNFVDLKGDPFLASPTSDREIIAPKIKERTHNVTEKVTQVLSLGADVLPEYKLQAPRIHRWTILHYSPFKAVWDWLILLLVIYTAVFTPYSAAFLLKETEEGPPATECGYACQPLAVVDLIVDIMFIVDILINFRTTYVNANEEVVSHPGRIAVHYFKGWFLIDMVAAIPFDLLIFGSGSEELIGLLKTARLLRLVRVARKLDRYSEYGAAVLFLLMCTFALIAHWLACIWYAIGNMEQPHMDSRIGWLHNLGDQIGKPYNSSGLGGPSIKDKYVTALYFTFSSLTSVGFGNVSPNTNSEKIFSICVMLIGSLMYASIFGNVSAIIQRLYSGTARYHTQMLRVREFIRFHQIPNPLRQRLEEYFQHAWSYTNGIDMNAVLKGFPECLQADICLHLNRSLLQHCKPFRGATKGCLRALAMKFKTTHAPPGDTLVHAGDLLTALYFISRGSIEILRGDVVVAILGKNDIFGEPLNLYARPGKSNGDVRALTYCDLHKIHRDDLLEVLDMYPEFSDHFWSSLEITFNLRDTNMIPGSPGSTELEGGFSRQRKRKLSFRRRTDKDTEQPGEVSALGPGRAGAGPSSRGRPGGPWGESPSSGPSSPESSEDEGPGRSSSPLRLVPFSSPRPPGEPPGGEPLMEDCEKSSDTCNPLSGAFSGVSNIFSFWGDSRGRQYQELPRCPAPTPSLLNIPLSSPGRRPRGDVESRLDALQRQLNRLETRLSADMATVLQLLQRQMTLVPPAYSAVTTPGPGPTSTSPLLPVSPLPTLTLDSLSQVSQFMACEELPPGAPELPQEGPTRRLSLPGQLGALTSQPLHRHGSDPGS

[17] = Fraction unbound in rat plasma; type: ADME, cell-free
[18] = Permeability from basolateral to apical side of human Caco-2 cells; type: ADME, cell-based; conditions: read-out: permeability
[19] = Solubility in simulated gastric fluid; type: physicochemical
Cytochrome P450 3A4 = Cytochrome P450 3A4 (Homo sapiens, UniProt P08684); assay: Inhibition of CYP3A4 at 10 uM; type: ADME
Cytochrome P450 3A4, sequence (P08684 whole entry): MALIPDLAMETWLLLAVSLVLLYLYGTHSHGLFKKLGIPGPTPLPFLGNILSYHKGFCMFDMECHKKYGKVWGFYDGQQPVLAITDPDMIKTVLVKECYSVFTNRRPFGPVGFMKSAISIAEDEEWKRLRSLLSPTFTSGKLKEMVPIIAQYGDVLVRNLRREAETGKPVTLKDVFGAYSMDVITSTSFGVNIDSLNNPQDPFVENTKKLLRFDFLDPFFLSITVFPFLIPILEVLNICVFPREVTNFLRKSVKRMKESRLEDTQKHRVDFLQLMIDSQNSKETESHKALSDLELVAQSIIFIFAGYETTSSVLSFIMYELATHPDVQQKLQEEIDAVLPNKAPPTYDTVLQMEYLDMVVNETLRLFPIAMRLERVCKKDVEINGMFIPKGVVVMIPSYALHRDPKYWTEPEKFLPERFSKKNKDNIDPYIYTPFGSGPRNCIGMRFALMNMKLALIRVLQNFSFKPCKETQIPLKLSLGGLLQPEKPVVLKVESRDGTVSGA

[20] = Clearance in BALB/c mouse at 1 mg/kg, iv and 10 mg/kg, po; type: ADME, organism-based; conditions: in vivo
hERG (KCNH2) = hERG (KCNH2) (Homo sapiens, UniProt Q12809); assay: Displacement of radiolabeled astemizole from human ERG at 10 uM; conditions: probe radiolabeled astemizole
hERG (KCNH2), sequence (Q12809 whole entry): as the sequence (Q12809 whole entry) above

[21] = Clearance in Sprague-Dawley rat at 1 mg/kg, iv and 10 mg/kg, po; type: ADME, organism-based; conditions: in vivo
[22] = Volume of distribution at steady state in BALB/c mouse at 1 mg/kg, iv and 10 mg/kg, po; type: ADME, organism-based; conditions: in vivo, read-out: Vdss
[23] = Clearance in Beagle dog at 1 mg/kg, iv and 5 mg/kg, po; type: ADME, organism-based, Canis lupus familiaris; conditions: in vivo
[24] = Half life in Sprague-Dawley rat at 1 mg/kg, iv and 10 mg/kg, po; type: ADME, organism-based; conditions: in vivo
[25] = Volume of distribution at steady state in Sprague-Dawley rat at 1 mg/kg, iv and 10 mg/kg, po; type: ADME, organism-based; conditions: in vivo, read-out: Vdss
Cytochrome P450 2D6 = Cytochrome P450 2D6 (Homo sapiens, UniProt P10635); assay: Inhibition of CYP2D6 at 10 uM; type: ADME
Cytochrome P450 2D6, sequence (P10635 whole entry): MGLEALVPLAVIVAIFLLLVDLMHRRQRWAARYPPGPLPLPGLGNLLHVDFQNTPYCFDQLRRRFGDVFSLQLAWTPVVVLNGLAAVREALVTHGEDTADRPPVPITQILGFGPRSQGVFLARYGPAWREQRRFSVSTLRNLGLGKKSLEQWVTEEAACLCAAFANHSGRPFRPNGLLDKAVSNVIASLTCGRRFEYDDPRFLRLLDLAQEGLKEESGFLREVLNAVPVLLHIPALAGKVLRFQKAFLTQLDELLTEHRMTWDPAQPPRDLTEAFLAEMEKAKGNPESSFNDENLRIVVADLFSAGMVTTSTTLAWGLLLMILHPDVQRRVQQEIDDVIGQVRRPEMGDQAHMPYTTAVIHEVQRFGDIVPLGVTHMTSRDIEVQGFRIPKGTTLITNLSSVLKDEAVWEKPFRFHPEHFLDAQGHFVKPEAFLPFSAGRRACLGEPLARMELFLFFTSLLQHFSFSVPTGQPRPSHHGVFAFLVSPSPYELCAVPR

[26] = Bioavailability in Beagle dog at 1 mg/kg, iv and 5 mg/kg, po; type: ADME, organism-based, Canis lupus familiaris; conditions: in vivo
[27] = Bioavailability in BALB/c mouse at 1 mg/kg, iv and 10 mg/kg, po; type: ADME, organism-based; conditions: in vivo
[28] = target: T3, Voltage-gated inwardly rectifying potassium channel KCNH2; assay: Displacement of radiolabeled astemizole from human ERG
[29] = Plasma concentration in Wistar rat at 1 mg/kg, po after 60 mins; type: ADME, organism-based; design: dose 1 mg/kg, route oral; conditions: read-out: Drug uptake
[30] = Half life in BALB/c mouse at 1 mg/kg, iv and 10 mg/kg, po; type: ADME, organism-based; conditions: in vivo
Rattus norvegicus [31] = assay: Increase of histamine release in rat frontal cortex at 3 to 30 mg/kg, po measured up to 180 mins; type: functional, organism-based
[32] = Volume of distribution at steady state in Beagle dog at 1 mg/kg, iv and 5 mg/kg, po; type: ADME, organism-based, Canis lupus familiaris; conditions: in vivo, read-out: Vdss

SMILES: O=C(c1ccc(Sc2ccc(F)cc2)nc1)N1CCCN(C2CCC2)CC1
Ki (Histamine H3 receptor [1]): 29 nM

SMILES: CC(C)N1CCN(C(=O)c2ccc(Oc3ccccc3)nc2)CC1
Ki (Histamine H3 receptor [1]): 260 nM

SMILES: O=C(c1ccc(Oc2ccccc2Cl)nc1)N1CCN(C2CCCC2)CC1
Ki (Histamine H3 receptor [1]): 40 nM

SMILES: CC(C)N1CCN(C(=O)c2ccc(Oc3ccccc3Cl)nc2)CC1
Ki (Histamine H3 receptor [1]): 31 nM

SMILES: O=C(c1ccc(Oc2cccc(Cl)c2)nc1)N1CCCN(C2CC2)CC1
concentration at 1 h [3]: 300 nM
concentration at 1 h [4]: 310 nM
Ki (Histamine H3 receptor [8]): 75 nM
Kb (Histamine H3 receptor [9]): 11.5 nM
Ki (Histamine H3 receptor [1]): 17 nM
remaining at 0.5 h [5]: 70%
remaining at 0.5 h [6]: 41%

SMILES: O=C(c1cc(Oc2ccccc2)ccn1)N1CCCN(C2CCC2)CC1
Ki (Histamine H3 receptor [1]): 41 nM

SMILES: CSc1ccc(Oc2ccc(C(=O)N3CCN(C(C)C)CC3)cn2)cc1
Ki (Histamine H3 receptor [1]): 230 nM

SMILES: O=C(c1ccc(Oc2ccc(F)cc2)nc1)N1CCCN(C2CC2)CC1
Kb (Histamine H3 receptor [7]): 1.58 nM
Ki (Histamine H3 receptor [1]): 25 nM

SMILES: O=C(c1cccc(Oc2ccc(Cl)c(Cl)c2)n1)N1CCCN(C2CCC2)CC1
Ki (Histamine H3 receptor [1]): 160 nM

SMILES: CC(C)N1CCN(C(=O)c2ccc(Oc3ccc(Cl)c(Cl)c3)nc2)CC1
Ki (Histamine H3 receptor [1]): 78 nM

SMILES: CC(C)N1CCN(C(=O)c2ccc(Oc3ccc(Cl)cc3)nc2)CC1
Ki (Histamine H3 receptor [1]): 73 nM

SMILES: O=C(c1ccc(Oc2cccc(Cl)c2)nc1)N1CCCN(C2CCC2)CC1
Activity (Rattus norvegicus [2]): 96%
bioavailability [12]: 19%
Kb (Histamine H3 receptor [7]): 0.871 nM
IC50 [16]: 1600 nM
concentration at 1 h [3]: 1720 nM
concentration at 1 h [4]: 630 nM
inhibition at 10 µM (hERG (KCNH2)): 28%
clearance [21]: 104 mL/min/kg
half-life [24]: 60 min
Vd [25]: 5 L/kg
Kb (Histamine H3 receptor [9]): 5.01 nM
IC50 [28]: > 10000 nM
remaining at 0.5 h [5]: 98%
remaining at 0.5 h [6]: 58%

Now from value to compound, other results behind:

concentration at 1 h [3]: 4790 nM
concentration at 1 h [4]: 1520 nM
Ki (Histamine H3 receptor [1]): 7.6 nM
remaining at 0.5 h [5]: 30%
remaining at 0.5 h [6]: 4%
SMILES: O=C(c1ccc(Oc2ccc(Cl)c(Cl)c2)nc1)N1CCCN(C2CCC2)CC1
Activity (Rattus norvegicus [2]): 100%

Ki (Histamine H3 receptor [1]): 17 nM
SMILES: O=C(c1cncc(Oc2ccc(F)cc2)c1)N1CCCN(C2CCC2)CC1

Kb (Histamine H3 receptor [7]): 0.309 nM
Ki (Histamine H3 receptor [1]): 1.5 nM
SMILES: CC(C)N1CCCN(C(=O)c2ccc(Oc3ccc(Cl)c(Cl)c3)cn2)CC1

Kb (Histamine H3 receptor [7]): 0.537 nM
Ki (Histamine H3 receptor [1]): 4.3 nM
SMILES: O=C(c1ccc(Oc2ccccc2F)cn1)N1CCCN(C2CCC2)CC1

Ki (Histamine H3 receptor [1]): 3.7 nM
SMILES: O=C(c1ccc(Sc2ccccc2)cn1)N1CCCN(C2CCC2)CC1

half-life [11]: 54 min
bioavailability [12]: 89%
Kb (Histamine H3 receptor [7]): 0.407 nM
Activity (Cytochrome P450 2C9): Not Active
Papp A→B [14]: 77 ×10⁻⁶ cm/s
solubility [15]: > 100 mg/mL
concentration at 1 h [3]: 960 nM
fraction unbound [17]: 0.79
Papp B→A [18]: 25 ×10⁻⁶ cm/s
solubility [19]: > 1 mg/mL
Activity (Cytochrome P450 3A4): Not Active
concentration at 1 h [4]: 6020 nM
clearance [20]: 97 mL/min/kg
Ki (Histamine H3 receptor [8]): 11 nM
clearance [21]: 41 mL/min/kg
Vd [22]: 4.4 L/kg
clearance [23]: 21 mL/min/kg
half-life [24]: 42 min
Vd [25]: 1.4 L/kg
Kb (Histamine H3 receptor [9]): 9.55 nM
Activity (Cytochrome P450 2D6): Not Active
bioavailability [26]: 29%
bioavailability [27]: 21%
Ki (Histamine H3 receptor [1]): 1.8 nM
concentration at 1 h [29]: 160 ng/mL
half-life [30]: 48 min
Vd [32]: 1.6 L/kg
remaining at 0.5 h [5]: 99%
remaining at 0.5 h [6]: 87%
SMILES: N#Cc1cccc(Oc2ccc(C(=O)N3CCCN(C4CCC4)CC3)cn2)c1
Activity (Rattus norvegicus [10]): 90%
Activity (Rattus norvegicus [2]): 87%
Activity (Rattus norvegicus [13]): Active
IC50 [16]: > 10000 nM
inhibition at 10 µM (hERG (KCNH2)): 23%
IC50 [28]: > 10000 nM
Activity (Rattus norvegicus [31]): Active

Ki (Histamine H3 receptor [1]): 16 nM
SMILES: O=C(c1ccc(Oc2cccc(F)c2)nc1)N1CCCN(C2CC2)CC1

Ki (Histamine H3 receptor [1]): 10 nM
SMILES: O=C(c1ccc(Oc2ccc(Cl)c(Cl)c2)cn1)N1CCCN(C2CC2)CC1

Kb (Histamine H3 receptor [7]): 0.269 nM
concentration at 1 h [3]: 300 nM
concentration at 1 h [4]: 210 nM
Ki (Histamine H3 receptor [8]): 15 nM
Kb (Histamine H3 receptor [9]): 3.72 nM
Ki (Histamine H3 receptor [1]): 4.4 nM
remaining at 0.5 h [5]: 99%
remaining at 0.5 h [6]: 90%
SMILES: O=C(c1ccc(Oc2ccccc2)nc1)N1CCCN(C2CCC2)CC1

concentration at 1 h [3]: 120 nM
concentration at 1 h [4]: 30 nM
Ki (Histamine H3 receptor [1]): 4.6 nM
remaining at 0.5 h [5]: 82%
remaining at 0.5 h [6]: 7%
SMILES: O=C(c1ccc(Sc2ccc(F)cc2)cn1)N1CCCN(C2CCC2)CC1
